Data on 23 compounds can be found in patent publication US10709706B2, “Nuclear transport modulators and uses thereof” (Karyopharm Therapeutics Inc., priority 2015, dated 2020).

In general, IC50 refers to the concentration needed to halve the response being measured. Low readings indicate higher potency, high ones lower potency.

Assay type in all cases: cell-based
One test relates to 3T3 cells. Description: MTT cell proliferation assay, 3T3 cells. The conditions noted are these: Mus musculus, NIH3T3, 3T3 fibroblast cells, approximately 64-72 hours, 1 nM to 30 μM. How it is done:
(§1) The MTT cell proliferation assay was used to study the cytotoxic properties of the compounds. The assay was performed according to the method described by Roche Molecular Biochemicals, with minor modifications. The assay is based on the cleavage of the tetrazolium salt, MTT, in the presence of an electron-coupling reagent. The water-insoluble formazan salt produced must be solubilized in an additional step. Cells grown in a 96-well tissue culture plate were incubated with the MTT solution for approximately 4 hours. After this incubation period, a water-insoluble formazan dye formed. After solubilization, the formazan dye was quantitated using a scanning multi-well spectrophotometer (ELISA reader). […] The cells were seeded at 5,000-10,000 cells in each well of 96-well plate in 100 μL of fresh culture medium and were allowed to attach overnight. The stock solutions of the compounds were diluted in 100 μL cell culture medium to obtain eight concentrations of each test compound, ranging from 1 nM to 30 μM. […] All optical densities were measured at 490 nm using a Vmax Kinetic Microplate Reader (Molecular Devices). In most cases, the assay was performed in duplicate and the results were presented as a mean percent inhibition to the negative control±SE. The following formula was used to calculate the percent of inhibition: Inhibition (%)=(1−(ODo/OD))×100.
(§2) The compounds were tested against Z138, MM1S and 3T3 cells. The Z138 cell line is a mature B-cell acute lymphoblastic leukemia cell line derived from a patient with chronic lymphocytic leukemia. The MM1S cell line was established from the peripheral blood of a human multiple myeloma patient. 3T3 cells are standard fibroblast cells; they were originally isolated from Swiss mouse embryo tissue.

In a further test the test system is Z138 cells. Description: MTT cell proliferation assay, Z138 cells. The conditions noted are these: Homo sapiens, Z-138, approximately 64-72 hours, 1 nM to 30 μM. How it is done: as §1, §2
(In general: Tetrazolium assays rely on reduction of a dye to a coloured formazan, in cell work by metabolically active cells.)

A further test concerns MM1S cells. Description: MTT cell proliferation assay, MM1S cells. The settings on record: Homo sapiens, MM1.S, MM1S multiple myeloma cells, approximately 64-72 hours, 1 nM to 30 μM. Here is the method:
as §1, §2

`NC(=O)/C(=C/c1ccnc(-c2cc(C(F)(F)F)cc(C(F)(F)F)c2)n1)c1cccc(S(=O)(=O)N2CCC(F)CC2)c1` [Compound 131, (E)-3-(2-(3,5-bis(trifluoromethyl)phenyl)pyrimidin-4-yl)-2-(3-((4-fluoropiperidin-1-yl)sulfonyl)phenyl)acrylamide]: the IC50 in the test on 3T3 cells, with Z138 cells and with MM1S cells was greater than 30 µM in each case.
Consider `NC(=O)/C(=C/c1ccnc(-c2cc(C(F)(F)F)cc(C(F)(F)F)c2)n1)c1ccc(F)cc1F` [Compound 132, (E)-3-(2-(3,5-bis(trifluoromethyl)phenyl)pyrimidin-4-yl)-2-(2,4-difluorophenyl)acrylamide], for which the IC50 in the test on 3T3 cells, in the test with Z138 cells and in the test with MM1S cells was greater than 30 µM each time.
On to `NC(=O)/C(=C/c1ccnc(-c2cc(C(F)(F)F)cc(C(F)(F)F)c2)n1)c1ccc(OC(F)(F)F)cc1` [Compound 134, (E)-3-(2-(3,5-bis(trifluoromethyl)phenyl)pyrimidin-4-yl)-2-(4-(trifluoromethoxy)phenyl)acrylamide], for which the IC50 with 3T3 cells, with Z138 cells and with MM1S cells was greater than 30 µM in each case.
In the case of `N#Cc1ccc(/C(=C\c2ccnc(-c3cc(C(F)(F)F)cc(C(F)(F)F)c3)n2)C(N)=O)s1` [Compound 135, (Z)-3-(2-(3,5-bis(trifluoromethyl)phenyl)pyrimidin-4-yl)-2-(5-cyanothiophen-2-yl)acrylamide], the results for the 50% inhibitory concentration (IC50) in the test with 3T3 cells, with Z138 cells and in the test on MM1S cells were 5 to 30 µM, 0.1 to 5 µM and less than 0.1 µM, respectively.
The matching figures for `NC(=O)/C(=C/c1ccnc(-c2cc(C(F)(F)F)cc(C(F)(F)F)c2)n1)c1cc2ccccc2o1` [Compound 136, (E)-2-(benzofuran-2-yl)-3-(2-(3,5-bis(trifluoromethyl)phenyl)pyrimidin-4-yl)acrylamide]: 5 to 30 µM, 0.1 to 5 µM and 0.1 to 5 µM.
The corresponding values for `NC(=O)/C(=C/c1ccnc(-c2cc(C(F)(F)F)cc(C(F)(F)F)c2)n1)c1cc2ccccc2s1` [Compound 137, (Z)-2-(benzo[b]thiophen-2-yl)-3-(2-(3,5-bis(trifluoromethyl)phenyl)pyrimidin-4-yl)acrylamide] are greater than 30 µM, 0.1 to 5 µM and 0.1 to 5 µM.
The corresponding values for `NC(=O)/C(=C/c1ccnc(-c2cc(C(F)(F)F)cc(C(F)(F)F)c2)n1)c1ccc2cn[nH]c2c1` [Compound 140, (E)-3-(2-(3,5-bis(trifluoromethyl)phenyl)pyrimidin-4-yl)-2-(1H-indazol-6-yl)acrylamide] are greater than 30 µM, 0.1 to 5 µM and greater than 30 µM.
For the compound `NC(=O)/C(=C/c1ccnc(-c2cc(C(F)(F)F)cc(C(F)(F)F)c2)n1)c1cccc(Cl)c1Cl` [Compound 141, (E)-3-(2-(3,5-bis(trifluoromethyl)phenyl)pyrimidin-4-yl)-2-(2,3-dichlorophenyl)acrylamide], the IC50 in the test with 3T3 cells, with Z138 cells and with MM1S cells was greater than 30 µM in each case.
As to `NC(=O)/C(=C/c1ccnc(-c2cc(C(F)(F)F)cc(C(F)(F)F)c2)n1)c1ccc(-c2cccnc2)cc1` [Compound 142, (E)-3-(2-(3,5-bis(trifluoromethyl)phenyl)pyrimidin-4-yl)-2-(4-(pyridin-3-yl)phenyl)acrylamide], the IC50 in the test with 3T3 cells, with Z138 cells and with MM1S cells was greater than 30 µM in each case.
On to `NC(=O)/C(=C/c1ccnc(-c2cc(C(F)(F)F)cc(C(F)(F)F)c2)n1)c1ccsc1Cl` [Compound 143, (E)-3-(2-(3,5-bis(trifluoromethyl)phenyl)pyrimidin-4-yl)-2-(2-chlorothiophen-3-yl)acrylamide], for which the IC50 in the test with 3T3 cells, with Z138 cells and in the test on MM1S cells was greater than 30 µM in each case.
Take `CS(=O)(=O)Nc1cccc(/C(=C\c2ccnc(-c3cc(C(F)(F)F)cc(C(F)(F)F)c3)n2)C(N)=O)c1` [Compound 144, (E)-3-(2-(3,5-bis(trifluoromethyl)phenyl)pyrimidin-4-yl)-2-(3-(methylsulfonamido)phenyl)acrylamide]: the IC50 with 3T3 cells, with Z138 cells and in the test on MM1S cells was greater than 30 µM throughout.
With `NC(=O)/C(=C/c1ccnc(-c2cc(C(F)(F)F)cc(C(F)(F)F)c2)n1)c1cccc(S(=O)(=O)N2CC(F)C2)c1` [Compound 145, (E)-3-(2-(3,5-bis(trifluoromethyl)phenyl)pyrimidin-4-yl)-2-(3-((3-fluoroazetidin-1-yl)sulfonyl)phenyl)acrylamide], the IC50 with 3T3 cells, in the test on Z138 cells and in the test with MM1S cells was greater than 30 µM each time.
For `CN1CCN(S(=O)(=O)c2cccc(/C(=C\c3ccnc(-c4cc(C(F)(F)F)cc(C(F)(F)F)c4)n3)C(N)=O)c2)CC1` [Compound 146, (E)-3-(2-(3,5-bis(trifluoromethyl)phenyl)pyrimidin-4-yl)-2-(3-((4-methylpiperazin-1-yl)sulfonyl)phenyl)acrylamide], the IC50 in the test on 3T3 cells, in the test on Z138 cells and in the test with MM1S cells was greater than 30 µM throughout.
As to `NC(=O)/C(=C/c1ccnc(-c2cc(C(F)(F)F)cc(C(F)(F)F)c2)n1)c1cncc(Cl)c1` [Compound 147, (E)-3-(2-(3,5-bis(trifluoromethyl)phenyl)pyrimidin-4-yl)-2-(5-chloropyridin-3-yl)acrylamide], the IC50 in the test with 3T3 cells was greater than 30 µM; in the test on Z138 cells it was 0.1 to 5 µM; in the test on MM1S cells it was less than 0.1 µM.
The matching figures for `NC(=O)/C(=C/c1ccnc(-c2cc(C(F)(F)F)cc(C(F)(F)F)c2)n1)c1ccncc1` [Compound 148, (E)-3-(2-(3,5-bis(trifluoromethyl)phenyl)pyrimidin-4-yl)-2-(pyridin-4-yl)acrylamide]: greater than 30 µM, 0.1 to 5 µM and 0.1 to 5 µM.
The matching figures for `NC(=O)/C(=C/c1ccnc(-c2cc(C(F)(F)F)cc(C(F)(F)F)c2)n1)c1cnc(Cl)nc1` [Compound 149, (E)-3-(2-(3,5-bis(trifluoromethyl)phenyl)pyrimidin-4-yl)-2-(2-chloropyrimidin-5-yl)acrylamide]: greater than 30 µM, 0.1 to 5 µM and 0.1 to 5 µM.
The corresponding values for `NC(=O)/C(=C/c1ccnc(-c2cc(C(F)(F)F)cc(C(F)(F)F)c2)n1)c1cccc(F)n1` [Compound 150, (E)-3-(2-(3,5-bis(trifluoromethyl)phenyl)pyrimidin-4-yl)-2-(6-fluoropyridin-2-yl)acrylamide] are greater than 30 µM, 0.1 to 5 µM and 0.1 to 5 µM.
In the case of `NC(=O)/C(=C/c1ccnc(-c2cc(C(F)(F)F)cc(C(F)(F)F)c2)n1)c1ccc(S(=O)(=O)N2CCOCC2)cc1` [Compound 151, (E)-3-(2-(3,5-bis(trifluoromethyl)phenyl)pyrimidin-4-yl)-2-(4-(morpholinosulfonyl)phenyl)acrylamide], the IC50 in the test on 3T3 cells is greater than 30 µM; with Z138 cells, 5 to 30 µM; with MM1S cells, 0.1 to 5 µM.
Take `NC(=O)/C(=C/c1ccnc(-c2cc(C(F)(F)F)cc(C(F)(F)F)c2)n1)c1cc(F)nc(F)c1` [Compound 152, (E)-3-(2-(3,5-bis(trifluoromethyl)phenyl)pyrimidin-4-yl)-2-(2,6-difluoropyridin-4-yl)acrylamide]: the IC50 was greater than 30 µM with 3T3 cells, 0.1 to 5 µM in the test on Z138 cells and 0.1 to 5 µM in the test on MM1S cells.
Consider `NC(=O)/C(=C/c1ccnc(-c2cc(C(F)(F)F)cc(C(F)(F)F)c2)n1)c1ccc(Cl)c(Cl)c1` [Compound 153, (E)-3-(2-(3,5-bis(trifluoromethyl)phenyl)pyrimidin-4-yl)-2-(3,4-dichlorophenyl)acrylamide], for which the IC50 in the test on 3T3 cells is greater than 30 µM; with Z138 cells, greater than 30 µM; with MM1S cells, 0.1 to 5 µM.
Turning to `NC(=O)/C(=C/c1ccnc(-c2cc(C(F)(F)F)cc(C(F)(F)F)c2)n1)c1ccc(S(=O)(=O)N2CCCC2)cc1` [Compound 155, (E)-3-(2-(3,5-bis(trifluoromethyl)phenyl)pyrimidin-4-yl)-2-(4-(pyrrolidin-1-ylsulfonyl)phenyl)acrylamide], the IC50 with 3T3 cells was greater than 30 µM; in the test on Z138 cells, greater than 30 µM; in the test with MM1S cells, 5 to 30 µM.
As to `NC(=O)/C(=C/c1ccnc(-c2cc(C(F)(F)F)cc(C(F)(F)F)c2)n1)c1ccc(S(=O)(=O)N2CCCCC2)cc1` [Compound 156, (E)-3-(2-(3,5-bis(trifluoromethyl)phenyl)pyrimidin-4-yl)-2-(4-(piperidin-1-ylsulfonyl)phenyl)acrylamide], the IC50 in the test with 3T3 cells, in the test on Z138 cells and in the test on MM1S cells was greater than 30 µM throughout.
On to `NC(=O)/C(=C/c1ccnc(-c2cc(C(F)(F)F)cc(C(F)(F)F)c2)n1)c1ccc(S(=O)(=O)N2CCC(F)(F)C2)cc1` [Compound 157, (E)-3-(2-(3,5-bis(trifluoromethyl)phenyl)pyrimidin-4-yl)-2-(4-((3,3-difluoropyrrolidin-1-yl)sulfonyl)phenyl)acrylamide], for which the IC50 in the test on 3T3 cells is greater than 30 µM; in the test on Z138 cells, 0.1 to 5 µM; in the test on MM1S cells, 0.1 to 5 µM.
